The record followed here is patent publication US20240009246A1, “CELLULAR-ANTIMICROBIAL COMBINATION COMPOSITION AND METHODS FOR TREATMENT OF BACTERIAL INFECTIONS OF JOINTS AND SOFT TISSUES” (priority 2021, published 2024).

Converted amounts (≈) assume the structure as drawn. Like-named read-outs stand apart in the source and are kept apart here.

The nature of data set [1]: in vitro cytotoxic activity of antibiotics against dog synoviocytes. It is filed as cell-based. The source says:
(§1) Table 1 and 2 represent in vitro evaluation of the cytotoxic activity of different conventional antibiotics, as assessed for toxicity against dog cells (Table 1) or horse cells (Table 2). Similar toxicity profiles would also be anticipated for human cells. The antibiotics with the highest IC50 values are considered non-cytotoxic, while those with lower values are considered more cytotoxic, and unsuitable for co-administration with activated MSC or activated iMSCs.

Data set [2] concerns CHONDROCYTES
The data set is described as follows: in vitro cytotoxic activity of antibiotics against dog chondrocytes. On the set-up: IC50 (cytotoxicity): unit not given beside the values. Type of data set: cell-based.
Description: as §1

Data set [3] relates to Chondrocytes. The data set is described as follows: in vitro cytotoxic activity of antibiotics against horse chondrocytes. As to conditions: for IC50: Equus caballus, Chondrocyte, read-out: Concentration (equine IC50). Type of data set: cell-based. The source says:
(§2) Table 1 and 2 represent in vitro evaluation of the cytotoxic activity of different conventional antibiotics, as assessed for toxicity against dog cells (Table 1) or horse cells (Table 2). Similar toxicity profiles would also be anticipated for human cells.
(§3) The antibiotics with the highest IC50 values are considered non-cytotoxic, while those with lower values are considered more cytotoxic, and unsuitable for co-administration with activated MSC or activated iMSCs. For example, amikacin and enrofloxacin are more cytotoxic to joint cells (e.g. synovial cells and chondrocytes) than vancomycin, and should not be used for preparing the antibiotic plus activated MSCs formulations of uses herein, whereas vancomycin is one of the preferred antibiotics for these formulations for treating gram+ infections.
(§4) Table 2 represents and overview of equine IC50s of certain antibiotics of use herein

Data set [4] in a line: in vitro cytotoxic activity of antibiotics against dog chondrocytes. It is filed as cell-based. On the set-up: IC50 (cytotoxicity): unit not given beside the values.
Description: as §1

The test system of another data set is Synovial Cells. Kind of data set: in vitro cytotoxic activity of antibiotics against horse synovial cells. It is filed as cell-based. The conditions noted are these: for IC50: Equus caballus, Synovial cell, read-out: Concentration (equine IC50).
Description: as §2, §3, §4

Data set [5] concerns MRSA strain of Staphylococcus aureus. The data set is described as follows: equine model of septic arthritis (joint infected with MRSA), intra-articular treatment.

As to `CCN1CCN(c2cc3c(cc2F)c(=O)c(C(=O)O)cn3C2CC2)CC1` [Enrofloxacin], the IC50 in data set [1] (dog) is 1250 µg/mL (≈ 3.47 mM); in the data set with Chondrocytes [3] (equine chondrocytes), 4590 µg/mL (≈ 12.8 mM). Also, in the data set on CHONDROCYTES [2], the “IC50 (cytotoxicity)” value is listed as “.078< × <1.56”.
Consider `CN[C@H](CC(C)C)C(=O)N[C@H]1C(=O)N[C@@H](CC(N)=O)C(=O)N[C@H]2C(=O)N[C@H]3C(=O)N[C@H](C(=O)N[C@H](C(=O)O)c4cc(O)cc(O)c4-c4cc3ccc4O)[C@H](O)c3ccc(c(Cl)c3)Oc3cc2cc(c3O[C@@H]2O[C@H](CO)[C@@H](O)[C@H](O)[C@H]2O[C@H]2C[C@](C)(N)[C@H](O)[C@H](C)O2)Oc2ccc(cc2Cl)[C@H]1O` [Vancomycin], for which the IC50 in data set [1] (dog synoviocytes, read-out: IC50 (cytotoxicity)) was 13800 µg/mL (≈ 9.5 mM); in data set [4] (dog chondrocytes, read-out: IC50 (cytotoxicity)), 8640 µg/mL (≈ 5.97 mM); in the data set with Chondrocytes [3], 7310 µg/mL (≈ 5.04 mM); with Synovial Cells it was 7810 µg/mL (≈ 5.39 mM). The “overall outcome of joint infection” value in data set [5] (control euthanized day 7, combined treatment day 14) was “uncontrolled joint infection”. Further, the “circumference of the infected tarsocrural joint (effusion)” value in data set [5] (infected joint vs uninfected joint) is “remained very swollen”. In addition, the “body temperature (fever) course” value in data set [5] (over time after MRSA joint infection) is given as “body temperature spikes were noted at two time points”. In data set [5] (spikes), the “body temperature in peaks” value is “around 102 ° F”.
In the case of `NCC[C@H](O)C(=O)N[C@@H]1C[C@H](N)[C@@H](O[C@H]2O[C@H](CN)[C@@H](O)[C@H](O)[C@H]2O)[C@H](O)[C@H]1O[C@H]1O[C@H](CO)[C@@H](O)[C@H](N)[C@H]1O` [Amikacin], the IC50 in data set [1] (dog) is 2260 µg/mL (≈ 3.86 mM); in data set [4] (dog), 2740 µg/mL (≈ 4.68 mM); in the data set with Chondrocytes [3] (equine chondrocytes), under 390 µg/mL; in the data set with Synovial Cells (equine synovial cells) it was 799 µg/mL (≈ 1.36 mM).
As for Gentamicin, the results for the “Concentration (equine IC50)” value in the data set on Chondrocytes [3] (equine chondrocytes) and in the data set with Synovial Cells (equine synovial cells) were 0.7083 mg/mL and 0.5125 mg/mL, respectively.
With Neomycin, the “Concentration (equine IC50)” value is 0.8219 mg/mL with Chondrocytes [3] (equine chondrocytes) and 6.274 mg/mL in the data set with Synovial Cells (equine synovial cells).
As for `CO/N=C(\C(=O)N[C@@H]1C(=O)N2C(C(=O)O)=C(CSC(=O)c3ccco3)CS[C@H]12)c1csc(N)n1` [Ceftiofur Sodium], the IC50 in the data set on Chondrocytes [3] (equine chondrocytes) is 4270 µg/mL; in the data set on Synovial Cells (equine synovial cells), over 25000 µg/mL.
Regarding `CC(C)(O/N=C(\C(=O)N[C@@H]1C(=O)N2C(C(=O)[O-])=C(C[n+]3ccccc3)CS[C@H]12)c1csc(N)n1)C(=O)O` [Ceftazidime], the IC50 in data set [1] (dog) stood at 1620 µg/mL (≈ 2.97 mM); in data set [4] (dog) it was 3160 µg/mL (≈ 5.78 mM); in the data set with Chondrocytes [3] (equine chondrocytes) it was 3590 µg/mL (≈ 6.57 mM); in the data set with Synovial Cells (equine synovial cells), 3360 µg/mL (≈ 6.15 mM).
For `C[C@@H](O)[C@H]1C(=O)N2C(C(=O)O)=C(SCCN=CN)C[C@H]12` [Imipenem], the IC50 in the data set with Chondrocytes [3] (equine chondrocytes) and with Synovial Cells (equine synovial cells) was over 25000 µg/mL each time.
With `Cc1nnc(SCC2=C(C(=O)O)N3C(=O)[C@@H](NC(=O)Cn4cnnn4)[C@H]3SC2)s1` [Cefazolin], the IC50 is 1480 µg/mL (≈ 3.26 mM) in data set [1] (dog), 1670 µg/mL (≈ 3.67 mM) in data set [4] (dog), 3950 µg/mL (≈ 8.69 mM) in the data set on Chondrocytes [3] (equine chondrocytes) and 1160 µg/mL (≈ 2.54 mM) in the data set on Synovial Cells (equine synovial cells).
Turning to `CC1(C)S[C@@H]2[C@H](NC(=O)Cc3ccccc3)C(=O)N2[C@H]1C(=O)[O-].[K+]` [Potassium penicillin], the “Concentration (equine IC50)” value with Chondrocytes [3] (equine chondrocytes) stood at 11.61 mg/mL.
With `CS(=O)(=O)c1ccc([C@@H](O)[C@@H](CF)NC(=O)C(Cl)Cl)cc1` [Florfenicol], the results for the IC50 in the data set on Chondrocytes [3] (equine chondrocytes) and in the data set with Synovial Cells (equine synovial cells) were 2190 µg/mL (≈ 6.11 mM) and 2960 µg/mL (≈ 8.25 mM), respectively.
In the same order, the values of `C[C@H]1c2cccc(O)c2C(=O)C2=C(O)[C@]3(O)C(=O)C(C(N)=O)=C(O)[C@@H](N(C)C)[C@@H]3[C@@H](O)[C@@H]21` [Doxycycline] are 1030 µg/mL (≈ 2.32 mM) and 711 µg/mL (≈ 1.6 mM).
On to Ampicillin sulbactam, for which the “Concentration (equine IC50)” value in the data set with Chondrocytes [3] (equine chondrocytes) and in the data set with Synovial Cells (equine synovial cells) was over 25 mg/mL each time.
On to `CC1(C)S[C@@H]2[C@H](NC(=O)[C@H](N)c3ccc(O)cc3)C(=O)N2[C@H]1C(=O)O` [Amoxicillin], for which the IC50 in the data set on Chondrocytes [3] (equine chondrocytes) is 14000 µg/mL (≈ 38.3 mM); in the data set with Synovial Cells (equine synovial cells) it was over 25000 µg/mL.
The matching figures for `NC[C@H]1O[C@H](O[C@H]2[C@H](O)[C@@H](O[C@H]3O[C@H](CO)[C@@H](O)[C@H](N)[C@H]3O)[C@H](N)C[C@@H]2N)[C@H](N)C[C@@H]1O` [Tobramycin]: over 25000 µg/mL and 9490 µg/mL (≈ 20.3 mM).
